In US5688764A, “Insecticidal peptides from spider venom” (NPS Pharmaceuticals, Inc., priority 1995, dated 1997):

Experiments:
Balb-C mice = experiment: Mammalian toxicity by intraperitoneal injection in mice; format: in vivo; settings: male Balb-C mice, 50 micrograms per mouse (~2 mg/kg), up to 120 hours after treatment
Method: Peptide A was tested for mammalian toxicity by intraperitoneal injection in mice. Two male Balb-C mice (~25 grams each) were injected with peptide A in physiological saline, at a dose of 50 micrograms per mouse (~2 mg/kg). Two control mice were injected with an equal volume of saline carrier. The mice were observed continuously for 1.5 hours, and periodically thereafter.

[1] = test system: tobacco budworm (TBW), Heliothis virescens; experiment: Bioassay: injection into the abdomen of fifth instar tobacco budworm larvae, paralysis; format: in vivo; settings: probit regression
Method: Whole venom was isolated by known techniques from the spider, Calisoga. The whole venom, or peptides purified therefrom, were dissolved in sterile buffered physiological saline. For testing and characterization purposes, venom and toxins were administered by injection into the abdomen of fifth instar larvae of the tobacco budworm (TBW), Heliothis virescens. Control larvae were injected with an equal volume of saline. After treatment, the insects were placed individually in Petri dishes, with food, and observed.
Insects that could not right themselves within thirty seconds of being placed on their backs or side were considered paralyzed. Fifty percent paralytic dose (PD50) values were calculated by probit regression (see Example 2). Raymond, M., Ser. Ent. med et Parasitol, 22(2), 117-121 (1985).
Whole venom from a spider, Calisoga sp. (Aranae: Nemesiidae), was dissolved in the desired volume of sterile, buffered physiological saline. Samples were administered by injection into the abdomen of the fifth instar larvae of the tobacco budworm, Heliothis virescens, as previously described. Control larvae were injected with equal volumes of saline.

Manduca sexta larvae = settings: toxin secreted in the course of infection by recombinant baculovirus; unnatural host; cited from earlier work
[2] = test system: Heliothis virescens larvae; settings: toxin secreted in the course of infection by recombinant baculovirus; natural host; cited from earlier work

Molecule: peptide A (CISARYPCSNSKDCCSGNCGTFWTCYIRKDPCSKECLAP)
- mammalian toxicity: effects observed (Balb-C mice): No effects were noted
- PD50 95% confidence interval [1]: 1.70 to 3.22 µg/g
- PD50 (fifty percent paralytic dose) [1]: 2.37 µg/g

Molecule: peptide B (CISARYPCSNSKDCCSGNCGTFWTCFIRKDPCSKECLAP)
- PD50 95% confidence interval [1]: 1.72 to 8.0 µg/g
- PD50 (fifty percent paralytic dose) [1]: 3.7 µg/g

B1: AaIT: scorpion peptide insect toxin expressed from a recombinant baculovirus (McCutchen et al. 1991) (protein, UniProt P01497 19-88, looked up)
Beta-insect excitatory toxin 1: KKNGYAVDSSGKAPECLLSNYCNNECTKVHYADKGYCCLLSCYCFGLNDDKKVLEISDTRKSYCDTTIIN
- effect on larvae (paralysis) (Manduca sexta larvae): caused paralysis
- effect on larvae (paralysis) [2]: caused paralysis
